Activity calls are given as the source filed them.
Experiments:
Type in all cases: functional, organism-based
Conditions in all cases: Trachea
Pseudomonas aeruginosa [1] = experiment: Antimicrobial activity against Pseudomonas aeruginosa 5G3 tracheal isolates from mechanically ventilated chronic respiratory insufficiency patient
Pseudomonas aeruginosa [2] = experiment: Antimicrobial activity against Pseudomonas aeruginosa 24E5 tracheal isolates from mechanically ventilated chronic respiratory insufficiency patient
Pseudomonas aeruginosa [3] = experiment: Antimicrobial activity against Pseudomonas aeruginosa 9A3 tracheal isolates from mechanically ventilated chronic respiratory insufficiency patient
Pseudomonas aeruginosa [4] = experiment: Antimicrobial activity against Pseudomonas aeruginosa 8C4 tracheal isolates from mechanically ventilated chronic respiratory insufficiency patient
Pseudomonas aeruginosa [5] = experiment: Antimicrobial activity against Pseudomonas aeruginosa 12A7 tracheal isolates from mechanically ventilated chronic respiratory insufficiency patient
Pseudomonas aeruginosa [6] = experiment: Antimicrobial activity against Pseudomonas aeruginosa 9A10 tracheal isolates from mechanically ventilated chronic respiratory insufficiency patient
Pseudomonas aeruginosa [7] = experiment: Antimicrobial activity against Pseudomonas aeruginosa 2A9 tracheal isolates from mechanically ventilated tuberculosis patient
Pseudomonas aeruginosa [8] = experiment: Antimicrobial activity against Pseudomonas aeruginosa 3D1 tracheal isolates from mechanically ventilated chronic respiratory insufficiency patient
Pseudomonas aeruginosa [9] = experiment: Antimicrobial activity against Pseudomonas aeruginosa 3B1 tracheal isolates from mechanically ventilated tuberculosis patient
Pseudomonas aeruginosa [10] = experiment: Antimicrobial activity against Pseudomonas aeruginosa 5F8 tracheal isolates from mechanically ventilated chronic respiratory insufficiency patient
Pseudomonas aeruginosa [11] = experiment: Antimicrobial activity against Pseudomonas aeruginosa 2C1 tracheal isolates from mechanically ventilated tuberculosis patient
Pseudomonas aeruginosa [12] = experiment: Antimicrobial activity against Pseudomonas aeruginosa 22C5 tracheal isolates from mechanically ventilated chronic respiratory insufficiency patient
Pseudomonas aeruginosa [13] = experiment: Antimicrobial activity against Pseudomonas aeruginosa 19B6 tracheal isolates from mechanically ventilated chronic respiratory insufficiency patient
Pseudomonas aeruginosa [14] = experiment: Antimicrobial activity against Pseudomonas aeruginosa 10B1 tracheal isolates from mechanically ventilated chronic respiratory insufficiency patient
Pseudomonas aeruginosa [15] = experiment: Antimicrobial activity against Pseudomonas aeruginosa 2A7 tracheal isolates from mechanically ventilated tuberculosis patient
Pseudomonas aeruginosa [16] = experiment: Antimicrobial activity against Pseudomonas aeruginosa 29G8 tracheal isolates from mechanically ventilated chronic respiratory insufficiency patient
Pseudomonas aeruginosa [17] = experiment: Antimicrobial activity against Pseudomonas aeruginosa 65.68-2 tracheal isolates from mechanically ventilated tuberculosis patient
Pseudomonas aeruginosa [18] = experiment: Antimicrobial activity against Pseudomonas aeruginosa 9A1 tracheal isolates from mechanically ventilated chronic respiratory insufficiency patient
Pseudomonas aeruginosa [19] = experiment: Antimicrobial activity against Pseudomonas aeruginosa 24G1 tracheal isolates from mechanically ventilated chronic respiratory insufficiency patient
Pseudomonas aeruginosa [20] = experiment: Antimicrobial activity against Pseudomonas aeruginosa 10B3 tracheal isolates from mechanically ventilated chronic respiratory insufficiency patient
Pseudomonas aeruginosa [21] = experiment: Antimicrobial activity against Pseudomonas aeruginosa 19B3 tracheal isolates from mechanically ventilated chronic respiratory insufficiency patient
Pseudomonas aeruginosa [22] = experiment: Antimicrobial activity against Pseudomonas aeruginosa 2A5 tracheal isolates from mechanically ventilated chronic respiratory insufficiency patient
Pseudomonas aeruginosa [23] = experiment: Antimicrobial activity against Pseudomonas aeruginosa 29G6 tracheal isolates from mechanically ventilated chronic respiratory insufficiency patient
Pseudomonas aeruginosa [24] = experiment: Antimicrobial activity against Pseudomonas aeruginosa 1B9 tracheal isolates from mechanically ventilated tuberculosis patient
Pseudomonas aeruginosa [25] = experiment: Antimicrobial activity against Pseudomonas aeruginosa 22E3 tracheal isolates from mechanically ventilated chronic respiratory insufficiency patient
Pseudomonas aeruginosa [26] = experiment: Antimicrobial activity against Pseudomonas aeruginosa 19E2 tracheal isolates from mechanically ventilated chronic respiratory insufficiency patient
Pseudomonas aeruginosa [27] = experiment: Antimicrobial activity against Pseudomonas aeruginosa 9A7 tracheal isolates from mechanically ventilated chronic respiratory insufficiency patient
Pseudomonas aeruginosa [28] = experiment: Antimicrobial activity against Pseudomonas aeruginosa 12B2 tracheal isolates from mechanically ventilated chronic respiratory insufficiency patient
Pseudomonas aeruginosa [29] = experiment: Antimicrobial activity against Pseudomonas aeruginosa 2A2 tracheal isolates from mechanically ventilated tuberculosis patient
Pseudomonas aeruginosa [30] = experiment: Antimicrobial activity against Pseudomonas aeruginosa 22D2 tracheal isolates from mechanically ventilated chronic respiratory insufficiency patient
Pseudomonas aeruginosa [31] = experiment: Antimicrobial activity against Pseudomonas aeruginosa 65.38-3 tracheal isolates from mechanically ventilated tuberculosis patient
Pseudomonas aeruginosa [32] = experiment: Antimicrobial activity against Pseudomonas aeruginosa 3D10 tracheal isolates from mechanically ventilated chronic respiratory insufficiency patient
Pseudomonas aeruginosa [33] = experiment: Antimicrobial activity against Pseudomonas aeruginosa 65.68-4 tracheal isolates from mechanically ventilated tuberculosis patient
Pseudomonas aeruginosa [34] = experiment: Antimicrobial activity against Pseudomonas aeruginosa 2A3 tracheal isolates from mechanically ventilated tuberculosis patient
Pseudomonas aeruginosa [35] = experiment: Antimicrobial activity against Pseudomonas aeruginosa 5F2 tracheal isolates from mechanically ventilated chronic respiratory insufficiency patient
Pseudomonas aeruginosa [36] = experiment: Antimicrobial activity against Pseudomonas aeruginosa 22D9 tracheal isolates from mechanically ventilated chronic respiratory insufficiency patient
Pseudomonas aeruginosa [37] = experiment: Antimicrobial activity against Pseudomonas aeruginosa 2F6 tracheal isolates from mechanically ventilated tuberculosis patient
Pseudomonas aeruginosa [38] = experiment: Antimicrobial activity against Pseudomonas aeruginosa 65.68-1 tracheal isolates from mechanically ventilated tuberculosis patient
Pseudomonas aeruginosa [39] = experiment: Antimicrobial activity against Pseudomonas aeruginosa 15G2 tracheal isolates from mechanically ventilated chronic respiratory insufficiency patient
Pseudomonas aeruginosa [40] = experiment: Antimicrobial activity against Pseudomonas aeruginosa 10A6 tracheal isolates from mechanically ventilated chronic respiratory insufficiency patient
Pseudomonas aeruginosa [41] = experiment: Antimicrobial activity against Pseudomonas aeruginosa 65.38-1 tracheal isolates from mechanically ventilated tuberculosis patient
Pseudomonas aeruginosa [42] = experiment: Antimicrobial activity against Pseudomonas aeruginosa 8A2 tracheal isolates from mechanically ventilated chronic respiratory insufficiency patient
Pseudomonas aeruginosa [43] = experiment: Antimicrobial activity against Pseudomonas aeruginosa 12A3 tracheal isolates from mechanically ventilated chronic respiratory insufficiency patient
Pseudomonas aeruginosa [44] = experiment: Antimicrobial activity against Pseudomonas aeruginosa 22D6 tracheal isolates from mechanically ventilated chronic respiratory insufficiency patient
Pseudomonas aeruginosa [45] = experiment: Antimicrobial activity against Pseudomonas aeruginosa 5H6 tracheal isolates from mechanically ventilated chronic respiratory insufficiency patient
Pseudomonas aeruginosa [46] = experiment: Antimicrobial activity against Pseudomonas aeruginosa 8B11 tracheal isolates from mechanically ventilated chronic respiratory insufficiency patient
Pseudomonas aeruginosa [47] = experiment: Antimicrobial activity against Pseudomonas aeruginosa 22E1 tracheal isolates from mechanically ventilated chronic respiratory insufficiency patient
Pseudomonas aeruginosa [48] = experiment: Antimicrobial activity against Pseudomonas aeruginosa 9B2 tracheal isolates from mechanically ventilated chronic respiratory insufficiency patient
Pseudomonas aeruginosa [49] = experiment: Antimicrobial activity against Pseudomonas aeruginosa 2C2 tracheal isolates from mechanically ventilated tuberculosis patient
Pseudomonas aeruginosa [50] = experiment: Antimicrobial activity against Pseudomonas aeruginosa 29F6 tracheal isolates from mechanically ventilated chronic respiratory insufficiency patient
Pseudomonas aeruginosa [51] = experiment: Antimicrobial activity against Pseudomonas aeruginosa 10A9 tracheal isolates from mechanically ventilated chronic respiratory insufficiency patient
Pseudomonas aeruginosa [52] = experiment: Antimicrobial activity against Pseudomonas aeruginosa 2A6 tracheal isolates from mechanically ventilated tuberculosis patient
Pseudomonas aeruginosa [53] = experiment: Antimicrobial activity against Pseudomonas aeruginosa 65.68-3 tracheal isolates from mechanically ventilated tuberculosis patient
Pseudomonas aeruginosa [54] = experiment: Antimicrobial activity against Pseudomonas aeruginosa 8A12 tracheal isolates from mechanically ventilated chronic respiratory insufficiency patient
Pseudomonas aeruginosa [55] = experiment: Antimicrobial activity against Pseudomonas aeruginosa 65.33-2 tracheal isolates from mechanically ventilated tuberculosis patient
Pseudomonas aeruginosa [56] = experiment: Antimicrobial activity against Pseudomonas aeruginosa 65.36-2 tracheal isolates from mechanically ventilated tuberculosis patient
Pseudomonas aeruginosa [57] = experiment: Antimicrobial activity against Pseudomonas aeruginosa 2A5 tracheal isolates from mechanically ventilated tuberculosis patient
Pseudomonas aeruginosa [58] = experiment: Antimicrobial activity against Pseudomonas aeruginosa 65.33-4 tracheal isolates from mechanically ventilated tuberculosis patient
Pseudomonas aeruginosa [59] = experiment: Antimicrobial activity against Pseudomonas aeruginosa 1A9 tracheal isolates from mechanically ventilated tuberculosis patient

Measured: Activity

NCC[C@H](O)C(=O)N[C@@H]1C[C@H](N)[C@@H](O[C@H]2O[C@H](CN)[C@@H](O)[C@H](O)[C@H]2O)[C@H](O)[C@H]1O[C@H]1O[C@H](CO)[C@@H](O)[C@H](N)[C@H]1O
inactive: Pseudomonas aeruginosa [7] | Pseudomonas aeruginosa [11] | Pseudomonas aeruginosa [15] | Pseudomonas aeruginosa [24] | Pseudomonas aeruginosa [31] | Pseudomonas aeruginosa [37] | Pseudomonas aeruginosa [41] | Pseudomonas aeruginosa [52]
not listed: Pseudomonas aeruginosa [55] | Pseudomonas aeruginosa [56] | Pseudomonas aeruginosa [57] | Pseudomonas aeruginosa [58] | Pseudomonas aeruginosa [59]
active: all other assays above

CC(C)(O/N=C(\C(=O)N[C@@H]1C(=O)N2C(C(=O)[O-])=C(C[n+]3ccccc3)CS[C@H]12)c1csc(N)n1)C(=O)O
inactive: Pseudomonas aeruginosa [7] | Pseudomonas aeruginosa [11] | Pseudomonas aeruginosa [15] | Pseudomonas aeruginosa [24] | Pseudomonas aeruginosa [31] | Pseudomonas aeruginosa [37] | Pseudomonas aeruginosa [41] | Pseudomonas aeruginosa [59] | Pseudomonas aeruginosa [52]
active: all other assays above

CO/N=C(\C(=O)N[C@@H]1C(=O)N2C(C(=O)[O-])=C(C[N+]3(C)CCCC3)CS[C@H]12)c1csc(N)n1
inactive: Pseudomonas aeruginosa [11] | Pseudomonas aeruginosa [15] | Pseudomonas aeruginosa [24] | Pseudomonas aeruginosa [37] | Pseudomonas aeruginosa [41]
not listed: Pseudomonas aeruginosa [7] | Pseudomonas aeruginosa [31] | Pseudomonas aeruginosa [52]
active: all other assays above

Source: ChEMBL document CHEMBL1147101, “Development and persistence of antimicrobial resistance in Pseudomonas aeruginosa: a longitudinal observation in mechanically ventilated patients” (Antimicrob Agents Chemother, 2007)
